The target in the assay is T1, TAAR1 (Mus musculus, UniProt Q923Y8).
T1 construct: expressed in transfected cells; host or cells: HEK293 cells (ATCC #CRL-1573), stably transfected with pIRESneo2 expression plasmid; membrane preparation
Nature of the assay: Radioligand binding assay on membranes of HEK293 cells stably expressing TAAR1. To be noted: radioligand [3H]-rac-2-(1,2,3,4-tetrahydro-1-naphthyl)-2-imidazoline 60 nM, 4° C., 30 min. The method, then:
The Expand High Fidelity PCR System (Roche Diagnostics) was used with 1.5 mM Mg^2+ and purified PCR products were cloned into pCR2.1-TOPO cloning vector (Invitrogen) following the instructions of the manufacturer. PCR products were subcloned into the pIRESneo2 vector (BD Clontech, Palo Alto, Calif.), and expression vectors were sequence verified before introduction in cell lines.
For the generation of stably transfected cell lines HEK293 cells were transfected with the pIRESneo2 expression plasmids containing the TAAR coding sequences (described above) with Lipofectamine 2000 (Invitrogen) according to the instructions of the manufacturer, and 24 hrs post transfection the culture medium was supplemented with 1 mg/ml G418 (Sigma, Buchs, Switzerland). After a culture period of about 10 d clones were isolated, expanded and tested for responsiveness to trace amines (all compounds purchased from Sigma) with the cAMP Biotrak Enzyme immunoassay (EIA) System (Amersham) following the non-acetylation EIA procedure provided by the manufacturer.
Cells at confluence were rinsed with ice-cold phosphate buffered saline without Ca^2+ and Mg^2+ containing 10 mM EDTA and pelleted by centrifugation at 1000 rpm for 5 min at 4° C. The pellet was then washed twice with ice-cold phosphate buffered saline and cell pellet was frozen immediately by immersion in liquid nitrogen and stored until use at −80° C. Cell pellet was then suspended in 20 ml HEPES-NaOH (20 mM), pH 7.4 containing 10 mM EDTA, and homogenized with a Polytron (PT 3000, Kinematica) at 10,000 rpm for 10 s. The homogenate was centrifuged at 48,000×g for 30 min at 4° C. and the pellet resuspended in 20 ml HEPES-NaOH (20 mM), pH 7.4 containing 0.1 mM EDTA (buffer A), and homogenized with a Polytron at 10,000 rpm for 10 s. The homogenate was then centrifuged at 48,000×g for 30 min at 4° C. and the pellet resuspended in 20 ml buffer A, and homogenized with a Polytron at 10,000 rpm for 10 s. Protein concentration was determined by the method of Pierce (Rockford, Ill.). […] Non-specific binding was defined as the amount of [^3H]-rac-2-(1,2,3,4-tetrahydro-1-naphthyl)-2-imidazoline bound in the presence of the appropriate unlabelled ligand (10 μM). Competing ligands were tested in a wide range of concentrations (10 pM-30 μM). […] Each experiment was performed in duplicate. All incubations were terminated by rapid filtration through UniFilter-96 plates (Packard Instrument Company) and glass filter GF/C, pre-soaked for at least 2 h in polyethylenimine 0.3%, and using a Filtermate 96 Cell Harvester (Packard Instrument Company). The tubes and filters were then washed 3 times with 1 ml aliquots of cold buffer B. Filters were not dried and soaked in Ultima gold (45 μl/well, Packard Instrument Company) and bound radioactivity was counted by a TopCount Microplate Scintillation Counter (Packard Instrument Company).

Setting [1] is: read-out: Ki value (μM) in mouse.

Like-named read-outs stand apart in the source and are kept apart here.

T1 sequence (Q923Y8 whole entry): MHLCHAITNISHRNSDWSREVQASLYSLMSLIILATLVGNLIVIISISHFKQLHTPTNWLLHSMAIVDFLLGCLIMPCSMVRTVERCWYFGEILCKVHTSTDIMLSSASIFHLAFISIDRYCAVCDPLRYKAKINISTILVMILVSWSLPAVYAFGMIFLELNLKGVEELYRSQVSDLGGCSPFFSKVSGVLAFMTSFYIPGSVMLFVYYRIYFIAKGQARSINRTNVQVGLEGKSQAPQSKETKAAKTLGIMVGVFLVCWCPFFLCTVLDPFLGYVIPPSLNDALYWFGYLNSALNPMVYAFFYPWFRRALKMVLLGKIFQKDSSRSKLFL

For the molecule `CCNc1ncc(C(=O)Nc2cccc(Cl)c2)cc1Cl` [Example 156, 5-Chloro-N-(3-chloro-phenyl)-6-ethylamino-nicotinamide], the inhibition constant Ki under setting [1] was found to be 0.039 µM.
The molecule `CCCNc1ncc(C(=O)Nc2cccc(Cl)c2)cc1Cl` [Example 157, 5-Chloro-N-(3-chloro-phenyl)-6-propylamino-nicotinamide] displayed a Ki (Ki value (μM) in mouse) of 0.011 µM.
For the molecule `CCCCNc1ncc(C(=O)Nc2cccc(Cl)c2)cc1Cl` [Example 158, 6-Butylamino-5-chloro-N-(3-chloro-phenyl)-nicotinamide], for the setting “Ki value (μM) in mouse”, the affinity corresponds to a Ki of 0.008 µM.
The same measure, in the same setting: then `O=C(Nc1cccc(Cl)c1)c1cnc(N2CCC2)c(Cl)c1` [Example 162, 6-Azetidin-1-yl-5-chloro-N-(3-chloro-phenyl)-nicotinamide], with 0.042 µM.
As for `O=C(Nc1cccc(Cl)c1)c1cnc(N2CCCCC2)c(Cl)c1` [Example 163, 3′-Chloro-3,4,5,6-tetrahydro-2H-[1,2′]bipyridinyl-5′-carboxylicacid (3-chloro-phenyl)-amide], the Ki under setting [1] amounted to 0.038 µM.
Consider `CN1CCN(c2ncc(C(=O)Nc3cccc(Cl)c3)cc2Cl)CC1` [Example 164, 5-Chloro-N-(3-chloro-phenyl)-6-(4-methyl-piperazin-1-yl)-nicotinamide], for which the Ki under setting [1] stood at 0.001 µM.
Where the note is “Ki value (μM) in mouse”, `COc1cccc(NC(=O)c2cccc(S(=O)(=O)N3CCCCCC3)c2)c1` [Example 170, 3-(Azepane-1-sulfonyl)-N-(3-methoxy-phenyl)-benzamide] returned an inhibitory constant (Ki) of 0.024 µM.
Take `Cc1cnc(C)n1Cc1cccc(NC(=O)c2ccc(Cl)c(Cl)c2)c1` [Example 177, 3,4-Dichloro-N-[3-(2,5-dimethyl-imidazol-1-ylmethyl)-phenyl]-benzamide]: the Ki under setting [1] is 0.049 µM.
`COc1cccc(NC(=O)c2cnc(Cl)c(C(F)(F)F)c2)c1` [Example 178, 6-Chloro-N-(3-methoxy-phenyl)-5-trifluoromethyl-nicotinamide]: the inhibition constant Ki under setting [1] came out at 0.008 µM.
Still for that read-out and setting: then `COc1cccc(NC(=O)c2cnc(N3CCCC3)c(C(F)(F)F)c2)c1` [Example 179, N-(3-Methoxy-phenyl)-6-pyrrolidin-1-yl-5-trifluoromethyl-nicotinamide], with 0.002 µM.
Still for that read-out and setting: to `CCc1cccc(NC(=O)c2ccc(N3CCCC3)c(C(F)(F)F)c2)c1` [Example 180, N-(3-Ethyl-phenyl)-4-pyrrolidin-1-yl-3-trifluoromethyl-benzamide] belongs 0.021 µM; to `CCOc1cccc(NC(=O)c2ccc(N3CCCC3)c(C(F)(F)F)c2)c1` [Example 181, N-(3-Ethoxy-phenyl)-4-pyrrolidin-1-yl-3-trifluoro-methyl-benzamide], 0.001 µM.
For `CC(C)c1cccc(NC(=O)c2ccc(N3CCCC3)c(C(F)(F)F)c2)c1` [Example 182, N-(3-Isopropyl-phenyl)-4-pyrrolidin-1-yl-3-trifluoro-methyl-benzamide], where the note is “Ki value (μM) in mouse”, the inhibitory constant (Ki) came out at 0.065 µM.
As for `CC(C)Oc1cccc(NC(=O)c2ccc(N3CCCC3)c(C(F)(F)F)c2)c1` [Example 183, N-(3-Isopropoxy-phenyl)-4-pyrrolidin-1-yl-3-trifluoro-methyl-benzamide], the Ki under setting [1] was determined as 0.007 µM.
For `CC(=O)c1cccc(NC(=O)c2ccc(N3CCCC3)c(C(F)(F)F)c2)c1` [Example 184, N-(3-Acetyl-phenyl)-4-pyrrolidin-1-yl-3-tri-fluoromethyl-benzamide], the Ki under setting [1] worked out at 0.026 µM.
As to `O=C(Nc1cccc(F)c1)c1ccc(N2CCCC2)c(C(F)(F)F)c1` [Example 185, N-(3-Fluoro-phenyl)-4-pyrrolidin-1-yl-3-trifluoro-methyl-benzamide], the Ki under setting [1] amounted to 0.009 µM.
Under “Ki value (μM) in mouse”, `O=C(Nc1cccc(Cl)c1)c1ccc(N2CCCC2)c(C(F)(F)F)c1` [Example 186, N-(3-Chloro-phenyl)-4-pyrrolidin-1-yl-3-trifluoro-methyl-benzamide] came in with a Ki of 0.02 µM.
`O=C(Nc1cccc(Br)c1)c1ccc(N2CCCC2)c(C(F)(F)F)c1` [Example 187, N-(3-Bromo-phenyl)-4-pyrrolidin-1-yl-3-trifluoro-methyl-benzamide]: the Ki under setting [1] was 0.046 µM.
In the case of `Cc1cccc(NC(=O)c2ccc(N3CCCC3)c(C(F)(F)F)c2)c1` [Example 189, 4-Pyrrolidin-1-yl-N-m-tolyl-3-trifluoro-methyl-benzamide], the Ki under setting [1] was 0.016 µM.
Same read-out and setting: then `O=C(Nc1cccc(OC(F)F)c1)c1ccc(N2CCCC2)c(C(F)(F)F)c1` [Example 190, N-(3-Difluoro-methoxy-phenyl)-4-pyrrolidin-1-yl-3-trifluoro-methyl-benzamide], with 0.012 µM.
On to `O=C(Nc1cccc(OC(F)(F)C(F)F)c1)c1ccc(N2CCCC2)c(C(F)(F)F)c1` [Example 192, 4-Pyrrolidin-1-yl-N-[3-(1,1,2,2-tetrafluoro-ethoxy)-phenyl]-3-trifluoro-methyl-benzamide], for which the Ki under setting [1] was 0.039 µM.
As to `COc1cccc(NC(=O)c2ccc(N3CCCCCC3)c(C(F)(F)F)c2)c1` [Example 195, 4-Azepan-1-yl-N-(3-methoxy-phenyl)-3-trifluoromethyl-benzamide], the inhibition constant (Ki) under setting [1] was 0.011 µM.
Still for that read-out and setting: to `COc1cccc(NC(=O)c2ccc(N3CCC(C#N)CC3)c(C(F)(F)F)c2)c1` [Example 196, 4-(4-Cyano-piperidin-1-yl)-N-(3-methoxy-phenyl)-3-trifluoromethyl-benzamide] belongs 0.022 µM; to `COc1cccc(NC(=O)c2ccc(N3CCC(C(F)(F)F)CC3)c(C(F)(F)F)c2)c1` [Example 197, N-(3-Methoxy-phenyl)-3-trifluoromethyl-4-(4-trifluoromethyl-piperidin-1-yl)-benzamide], 0.003 µM.
Molecule `COc1cccc(NC(=O)c2cnc(NCc3ccccc3)c(C(F)(F)F)c2)c1` [Example 199] gave a Ki (Ki value (μM) in mouse) of 0.0056 µM.
Consider `COc1cccc(NC(=O)c2cnc(NC(C)C)c(C(F)(F)F)c2)c1` [Example 200], for which the affinity (Ki value (μM) in mouse) corresponds to a Ki of 0.0597 µM.
For the molecule `COc1cccc(NC(=O)c2cnc(N3CCC(C)CC3)c(C(F)(F)F)c2)c1` [Example 201], the Ki under setting [1] came to 0.0017 µM.
The same measure, in the same setting: then `COc1cccc(NC(=O)c2cnc(N3CCCC3)c(Cl)c2)c1` [Example 205], with 0.0101 µM.
In turn, `COc1cccc(NC(=O)c2cnc(N3CCCCC3)c(Cl)c2)c1` [Example 206] returned a Ki (Ki value (μM) in mouse) of 0.0207 µM.
Turning to `COc1cccc(NC(=O)c2cnc(N3CCC(C)CC3)c(Cl)c2)c1` [Example 207], the Ki under setting [1] turned out to be 0.0098 µM.
For `CCCCNc1ncc(C(=O)Nc2cccc(OC)c2)cc1Cl` [Example 208], the affinity (Ki value (μM) in mouse) corresponds to a Ki of 0.0463 µM.
Consider `O=C(Nc1cccc(Cl)c1)c1cnc(N2CCNCC2)c(Cl)c1` [Example 210, 5-Chloro-N-(3-chloro-phenyl)-6-piperazin-1-yl-nicotinamide], for which the Ki under setting [1] worked out at 0.0348 µM.
On the same count and under the same terms, then `COc1cccc(NC(=O)c2ccc(Cl)c(C(F)(F)F)c2)c1` [Example 216, 4-Chloro-N-(3-methoxy-phenyl)-3-trifluoromethyl-benzamide], with 0.0058 µM.
Turning to `O=C(Nc1ccccc1)c1ccc(Cl)c(Cl)c1` [Example 217, 3,4-Dichloro-N-phenyl-benzamide], the Ki under setting [1] came to 0.054 µM.
The same measure, in the same setting: to `O=C(Nc1cccc(Cl)c1)c1ccc(Cl)c(Cl)c1` [Example 218, 3,3′,4-Trichlorobenzanilide] belongs 0.06 µM; to `O=C(Nc1ccccc1)c1ccc([N+](=O)[O-])c(C(F)(F)F)c1` [Example 219, 3-Trifluoromethyl-4-nitro-N-phenyl-benzamide], 0.067 µM; to `Cc1cccc(C(=O)Nc2ccc(Cl)c(Cl)c2)c1` [Example 220, N-(3,4-Dichloro-phenyl)-3-methyl-benzamide], 0.068 µM.
For `O=C(Nc1cccc(Cl)c1)c1ccc(Cl)c(Cl)c1` [Example 283, 3,4-Dichloro-N-(3-chloro-phenyl)-benzamide], the Ki under setting [1] was 0.06 µM.
Still for that read-out and setting: then `O=C(Nc1ccccc1)c1ccc(Cl)c(Cl)c1` [Example 319, 3,4-Dichloro-N-phenyl-benzamide], with 0.0543 µM; and `O=C(Nc1ccccc1)c1ccc([N+](=O)[O-])c(C(F)(F)F)c1` [Example 324, 4-Nitro-N-phenyl-3-trifluoromethyl-benzamide], with 0.0674 µM.

The Ki is a dissociation constant, usually derived from enzyme kinetics or from competition with a known ligand.

Values taken from patent publication US20090036420A1, “BENZAMIDE DERIVATIVES AND THEIR USE FOR TREATING CNS DISORDERS” (priority 2007, published 2009).
